What was measured:
[1] = target: Tyrosine-protein kinase ABL1 (Homo sapiens) (UniProt P00519); assay: Binding affinity to wild-type human phosphorylated ABL1 (S229 to K512 residues) expressed in mammalian expression system assessed as residual binding level at 1 uM by Kinomescan method relative to control
[2] = target: Aurora kinase B (Homo sapiens) (UniProt Q96GD4); assay: Binding affinity to wild-type human partial length AURKB (D25 to A303 residues) expressed in mammalian expression system assessed as residual binding level at 1 uM by Kinomescan method relative to control
[3] = target: Protein-tyrosine kinase 6 (Homo sapiens) (UniProt Q13882); assay: Binding affinity to wild-type human partial length BRK (L166 to T451 residues) expressed in bacterial expression system assessed as residual binding level at 1 uM by Kinomescan method relative to control
[4] = target: Calcium/calmodulin-dependent protein kinase type 1G (Homo sapiens) (UniProt Q96NX5); assay: Binding affinity to wild-type human partial length CAMK1G (M1 to A342 residues) expressed in bacterial expression system assessed as residual binding level at 1 uM by Kinomescan method relative to control
Sequence of Calcium/calmodulin-dependent protein kinase type 1G (Homo sapiens) (Q96NX5 whole entry, the tested form may be a part): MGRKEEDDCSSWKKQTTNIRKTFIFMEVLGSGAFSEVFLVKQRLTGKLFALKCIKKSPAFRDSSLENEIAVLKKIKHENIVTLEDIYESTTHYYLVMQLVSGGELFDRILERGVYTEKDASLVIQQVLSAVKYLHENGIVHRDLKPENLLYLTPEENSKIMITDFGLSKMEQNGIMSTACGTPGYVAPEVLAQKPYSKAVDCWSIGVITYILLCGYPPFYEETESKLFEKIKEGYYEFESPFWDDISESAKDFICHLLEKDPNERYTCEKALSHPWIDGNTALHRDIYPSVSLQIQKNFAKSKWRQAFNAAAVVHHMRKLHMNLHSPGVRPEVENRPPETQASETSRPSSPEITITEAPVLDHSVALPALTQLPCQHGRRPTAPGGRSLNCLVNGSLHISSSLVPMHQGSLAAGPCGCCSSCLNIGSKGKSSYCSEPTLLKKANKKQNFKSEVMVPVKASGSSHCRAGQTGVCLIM

[5] = target: Cyclin-dependent kinase 2 (Homo sapiens) (UniProt P24941); assay: Binding affinity to wild-type human full length CDK2 (M1 to L298 residues) expressed in bacterial expression system assessed as residual binding level at 1 uM by Kinomescan method relative to control
[6] = target: Myotonin-protein kinase (Homo sapiens) (UniProt Q09013); assay: Binding affinity to wild-type human partial length DMPK (V47 to V415 residues) expressed in bacterial expression system assessed as residual binding level at 1 uM by Kinomescan method relative to control
Sequence of Myotonin-protein kinase (Homo sapiens) (Q09013 whole entry, the tested form may be a part): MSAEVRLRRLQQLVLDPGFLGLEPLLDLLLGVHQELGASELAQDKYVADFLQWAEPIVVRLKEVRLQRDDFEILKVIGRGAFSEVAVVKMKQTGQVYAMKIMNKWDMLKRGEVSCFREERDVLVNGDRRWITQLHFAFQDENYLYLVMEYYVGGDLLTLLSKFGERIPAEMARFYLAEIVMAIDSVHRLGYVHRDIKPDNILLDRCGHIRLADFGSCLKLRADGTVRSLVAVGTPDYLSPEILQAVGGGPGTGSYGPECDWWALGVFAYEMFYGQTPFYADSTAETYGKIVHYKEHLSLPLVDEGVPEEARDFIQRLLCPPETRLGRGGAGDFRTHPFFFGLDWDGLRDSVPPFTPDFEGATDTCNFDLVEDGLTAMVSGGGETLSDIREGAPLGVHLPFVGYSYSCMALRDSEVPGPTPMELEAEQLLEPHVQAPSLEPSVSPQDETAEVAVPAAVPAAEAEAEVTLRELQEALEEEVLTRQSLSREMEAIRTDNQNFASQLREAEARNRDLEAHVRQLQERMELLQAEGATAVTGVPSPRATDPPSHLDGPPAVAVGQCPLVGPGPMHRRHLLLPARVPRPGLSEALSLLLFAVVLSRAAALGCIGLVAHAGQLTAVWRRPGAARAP

[7] = system: Epidermal growth factor receptor (Homo sapiens), P00533 [L858R]; assay: Binding affinity to human partial length EGFR L858R mutant (R669 to V1011 residues) expressed in bacterial expression system assessed as residual binding level at 1 uM by Kinomescan method relative to control
[8] = target: Ephrin type-A receptor 2 (Homo sapiens) (UniProt P29317); assay: Binding affinity to wild-type human partial length EPHA2 (T593 to V891 residues) expressed in bacterial expression system assessed as residual binding level at 1 uM by Kinomescan method relative to control
[9] = target: Tyrosine-protein kinase JAK1 (Homo sapiens) (UniProt P23458); assay: Binding affinity to wild-type human partial length JAK1 JH2 pseudokinase domain (R537 to D855 residues) expressed in mammalian expression system assessed as residual binding level at 1 uM by Kinomescan method relative to control
[10] = target: MAP kinase-interacting serine/threonine-protein kinase 2 (Homo sapiens) (UniProt Q9HBH9); assay: Binding affinity to wild-type human partial length MKNK2 (G63 to S388 residues) expressed in mammalian expression system assessed as residual binding level at 1 uM by Kinomescan method relative to control
Sequence of MAP kinase-interacting serine/threonine-protein kinase 2 (Homo sapiens) (Q9HBH9 whole entry, looked up, the tested form may be a part): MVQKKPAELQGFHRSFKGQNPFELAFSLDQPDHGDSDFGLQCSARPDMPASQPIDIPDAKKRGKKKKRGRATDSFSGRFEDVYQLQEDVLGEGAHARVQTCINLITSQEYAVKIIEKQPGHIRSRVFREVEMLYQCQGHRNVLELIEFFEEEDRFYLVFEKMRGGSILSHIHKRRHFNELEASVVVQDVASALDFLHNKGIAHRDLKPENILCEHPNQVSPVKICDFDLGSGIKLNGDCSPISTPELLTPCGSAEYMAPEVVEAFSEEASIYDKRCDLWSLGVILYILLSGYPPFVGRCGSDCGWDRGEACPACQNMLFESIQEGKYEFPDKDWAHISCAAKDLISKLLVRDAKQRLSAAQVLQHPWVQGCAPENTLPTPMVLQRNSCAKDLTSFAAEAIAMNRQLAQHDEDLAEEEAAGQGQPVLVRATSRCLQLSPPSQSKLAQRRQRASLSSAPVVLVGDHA

[11] = target: Mitogen-activated protein kinase kinase kinase 11 (Homo sapiens) (UniProt Q16584); assay: Binding affinity to wild-type human partial length MLK3 (I77 to W399 residues) expressed in bacterial expression system assessed as residual binding level at 1 uM by Kinomescan method relative to control
[12] = target: Serine/threonine-protein kinase MRCK alpha (Homo sapiens) (UniProt Q5VT25); assay: Binding affinity to wild-type human partial length MRCKA (L57 to V418 residues) expressed in bacterial expression system assessed as residual binding level at 1 uM by Kinomescan method relative to control
[13] = target: Serine/threonine-protein kinase 38-like (Homo sapiens) (UniProt Q9Y2H1); assay: Binding affinity to wild-type human partial length NDR2 (N34 to E447 residues) expressed in bacterial expression system assessed as residual binding level at 1 uM by Kinomescan method relative to control
[14] = system: Phosphatidylinositol 4,5-bisphosphate 3-kinase catalytic subunit alpha isoform (Homo sapiens), P42336 [E545A]; assay: Binding affinity to human partial length PIK3CA E545A mutant (R108 to N1068 residues) expressed in mammalian expression system assessed as residual binding level at 1 uM by Kinomescan method relative to control
[15] = system: Phosphatidylinositol 4,5-bisphosphate 3-kinase catalytic subunit alpha isoform (Homo sapiens), P42336 [M1043I]; assay: Binding affinity to human partial length PIK3CA M1043I mutant (R108 to N1068 residues) expressed in mammalian expression system assessed as residual binding level at 1 uM by Kinomescan method relative to control
[16] = target: Serine/threonine-protein kinase pim-3 (Homo sapiens) (UniProt Q86V86); assay: Binding affinity to wild-type human partial length PIM3 (G16 to A317 residues) expressed in bacterial expression system assessed as residual binding level at 1 uM by Kinomescan method relative to control
[17] = target: Phosphatidylinositol 4-phosphate 5-kinase type-1 gamma (Homo sapiens) (UniProt O60331); assay: Binding affinity to wild-type human partial length PIP5K1C (M1 to T668 residues) expressed in mammalian expression system assessed as residual binding level at 1 uM by Kinomescan method relative to control
[18] = target: Serine/threonine-protein kinase PLK3 (Homo sapiens) (UniProt Q9H4B4); assay: Binding affinity to wild-type human partial length PLK3 (A42 to L334 residues) expressed in mammalian expression system assessed as residual binding level at 1 uM by Kinomescan method relative to control
Sequence of Serine/threonine-protein kinase PLK3 (Homo sapiens) (Q9H4B4 whole entry, looked up, the tested form may be a part): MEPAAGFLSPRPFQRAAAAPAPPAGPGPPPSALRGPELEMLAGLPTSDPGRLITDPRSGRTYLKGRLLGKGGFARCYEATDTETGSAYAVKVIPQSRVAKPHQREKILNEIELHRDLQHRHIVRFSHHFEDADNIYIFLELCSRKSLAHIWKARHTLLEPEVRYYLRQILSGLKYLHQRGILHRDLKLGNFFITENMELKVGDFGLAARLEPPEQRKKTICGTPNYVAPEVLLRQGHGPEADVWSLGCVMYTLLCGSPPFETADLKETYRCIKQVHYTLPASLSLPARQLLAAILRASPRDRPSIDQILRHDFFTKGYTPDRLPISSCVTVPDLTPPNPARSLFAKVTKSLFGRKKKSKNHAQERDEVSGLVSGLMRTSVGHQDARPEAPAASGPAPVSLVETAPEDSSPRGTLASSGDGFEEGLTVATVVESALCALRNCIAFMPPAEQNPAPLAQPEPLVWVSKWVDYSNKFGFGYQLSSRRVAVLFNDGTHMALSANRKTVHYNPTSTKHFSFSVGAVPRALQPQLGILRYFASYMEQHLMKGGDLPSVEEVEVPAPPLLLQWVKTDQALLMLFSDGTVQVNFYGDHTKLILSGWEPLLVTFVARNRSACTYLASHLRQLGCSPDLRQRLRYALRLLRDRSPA

[19] = target: Serine/threonine-protein kinase D2 (Homo sapiens) (UniProt Q9BZL6); assay: Binding affinity to wild-type human partial length PRKD2 (A519 to E838 residues) expressed in bacterial expression system assessed as residual binding level at 1 uM by Kinomescan method relative to control
Sequence of Serine/threonine-protein kinase D2 (Homo sapiens) (Q9BZL6 whole entry, the tested form may be a part): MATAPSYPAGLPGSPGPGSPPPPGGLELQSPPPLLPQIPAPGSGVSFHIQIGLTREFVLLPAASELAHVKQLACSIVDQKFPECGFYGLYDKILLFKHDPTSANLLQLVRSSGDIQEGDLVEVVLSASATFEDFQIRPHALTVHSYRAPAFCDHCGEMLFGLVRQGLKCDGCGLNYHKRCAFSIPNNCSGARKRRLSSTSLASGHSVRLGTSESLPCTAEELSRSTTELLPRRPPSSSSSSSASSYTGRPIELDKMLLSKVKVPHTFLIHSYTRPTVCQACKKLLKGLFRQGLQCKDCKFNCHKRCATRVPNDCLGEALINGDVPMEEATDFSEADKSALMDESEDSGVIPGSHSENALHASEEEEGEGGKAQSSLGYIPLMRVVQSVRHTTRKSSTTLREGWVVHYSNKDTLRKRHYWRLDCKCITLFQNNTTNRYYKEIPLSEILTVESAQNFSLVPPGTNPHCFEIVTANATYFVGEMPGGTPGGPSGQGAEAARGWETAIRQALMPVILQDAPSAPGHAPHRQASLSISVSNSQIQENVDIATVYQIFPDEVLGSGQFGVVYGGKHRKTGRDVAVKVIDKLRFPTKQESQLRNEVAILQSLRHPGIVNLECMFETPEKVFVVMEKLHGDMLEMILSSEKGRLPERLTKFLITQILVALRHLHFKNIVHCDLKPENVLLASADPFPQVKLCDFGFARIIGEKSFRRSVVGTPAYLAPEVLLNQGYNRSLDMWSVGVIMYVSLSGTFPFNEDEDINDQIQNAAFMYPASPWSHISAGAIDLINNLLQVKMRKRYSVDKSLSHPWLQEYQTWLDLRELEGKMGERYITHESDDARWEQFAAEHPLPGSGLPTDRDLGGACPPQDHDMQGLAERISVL

[20] = target: cGMP-dependent protein kinase 1 (Homo sapiens) (UniProt Q13976); assay: Binding affinity to wild-type human partial length PRKG1 (L339 to F686 residues) expressed in bacterial expression system assessed as residual binding level at 1 uM by Kinomescan method relative to control
Sequence of cGMP-dependent protein kinase 1 (Homo sapiens) (Q13976 whole entry, the tested form may be a part): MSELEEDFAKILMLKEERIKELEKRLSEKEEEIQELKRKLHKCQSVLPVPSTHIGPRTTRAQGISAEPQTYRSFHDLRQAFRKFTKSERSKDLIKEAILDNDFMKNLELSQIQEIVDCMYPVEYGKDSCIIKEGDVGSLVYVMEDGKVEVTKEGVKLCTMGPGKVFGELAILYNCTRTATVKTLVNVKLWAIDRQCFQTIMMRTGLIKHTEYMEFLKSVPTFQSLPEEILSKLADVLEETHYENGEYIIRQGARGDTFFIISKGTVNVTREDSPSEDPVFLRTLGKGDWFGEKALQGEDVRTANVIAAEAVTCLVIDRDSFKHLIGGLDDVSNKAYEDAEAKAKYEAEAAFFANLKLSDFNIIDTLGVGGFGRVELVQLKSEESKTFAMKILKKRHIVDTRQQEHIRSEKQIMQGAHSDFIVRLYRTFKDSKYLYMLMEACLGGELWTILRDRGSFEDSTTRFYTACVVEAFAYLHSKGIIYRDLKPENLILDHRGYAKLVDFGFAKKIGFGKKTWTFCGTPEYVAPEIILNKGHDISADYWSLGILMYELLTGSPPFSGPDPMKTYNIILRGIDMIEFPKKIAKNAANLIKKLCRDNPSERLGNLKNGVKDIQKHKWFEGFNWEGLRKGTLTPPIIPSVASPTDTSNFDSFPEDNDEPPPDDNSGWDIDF

[21] = target: Ribosomal protein S6 kinase alpha-4 (Homo sapiens) (UniProt O75676); assay: Binding affinity to wild-type human partial length C-terminal RPS6KA4 kinase domain 2 (M375 to T705 residues) expressed in mammalian expression system assessed as residual binding level at 1 uM by Kinomescan method relative to control
Sequence of Ribosomal protein S6 kinase alpha-4 (Homo sapiens) (O75676 whole entry, looked up, the tested form may be a part): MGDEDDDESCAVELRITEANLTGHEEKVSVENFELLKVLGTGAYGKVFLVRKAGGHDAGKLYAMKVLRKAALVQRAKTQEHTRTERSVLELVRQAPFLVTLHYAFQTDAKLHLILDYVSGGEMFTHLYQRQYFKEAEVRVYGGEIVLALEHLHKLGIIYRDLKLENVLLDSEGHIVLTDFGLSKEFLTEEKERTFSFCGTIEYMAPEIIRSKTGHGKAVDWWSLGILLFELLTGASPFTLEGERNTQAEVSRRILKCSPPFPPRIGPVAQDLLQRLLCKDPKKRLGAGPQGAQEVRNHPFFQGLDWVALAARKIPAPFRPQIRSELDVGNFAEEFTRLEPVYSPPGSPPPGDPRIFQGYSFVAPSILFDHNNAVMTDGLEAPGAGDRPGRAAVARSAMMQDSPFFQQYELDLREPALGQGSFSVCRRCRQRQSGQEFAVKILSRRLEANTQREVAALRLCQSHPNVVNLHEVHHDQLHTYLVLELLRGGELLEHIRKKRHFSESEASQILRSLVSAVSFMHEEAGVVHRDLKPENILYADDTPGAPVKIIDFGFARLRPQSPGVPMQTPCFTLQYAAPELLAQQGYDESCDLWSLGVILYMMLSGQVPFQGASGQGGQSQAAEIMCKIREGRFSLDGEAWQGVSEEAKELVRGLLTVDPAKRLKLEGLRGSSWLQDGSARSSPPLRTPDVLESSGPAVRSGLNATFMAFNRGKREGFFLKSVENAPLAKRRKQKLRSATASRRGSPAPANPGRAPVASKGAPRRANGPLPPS

[22] = target: SRSF protein kinase 1 (Homo sapiens) (UniProt Q96SB4); assay: Binding affinity to wild-type human full length SRPK1 (M1 to S655 residues) expressed in bacterial expression system assessed as residual binding level at 1 uM by Kinomescan method relative to control
[23] = target: SRSF protein kinase 3 (Homo sapiens) (UniProt Q9UPE1); assay: Binding affinity to wild-type human partial length SRPK3 (P41 to P567 residues) expressed in bacterial expression system assessed as residual binding level at 1 uM by Kinomescan method relative to control
[24] = target: Tyrosine-protein kinase ZAP-70 (Homo sapiens) (UniProt P43403); assay: Binding affinity to wild-type human partial length ZAP70 (D20 to G299 residues) expressed in mammalian expression system assessed as residual binding level at 1 uM by Kinomescan method relative to control

## CC(C)Nc1sc(C(=O)c2ccc(Cl)s2)c(N)c1C#N
[1]
  Activity: 100%
[2]
  Activity: 100%
[3]
  Activity: 83%
[4]
  Activity: 68%
[5]
  Activity: 66%
[6]
  Activity: 100%
[7]
  Activity: 95%
[8]
  Activity: 100%
[9]
  Activity: 89%
[10]
  Activity: 100%
[11]
  Activity: 100%
[12]
  Activity: 87%
[13]
  Activity: 89%
[14]
  Activity: 100%
[15]
  Activity: 97%
[16]
  Activity: 86%
[17]
  Activity: 86%
[18]
  Activity: 85%
[19]
  Activity: 100%
[20]
  Activity: 100%
[21]
  Activity: 79%
[22]
  Activity: 100%
[23]
  Activity: 96%
[24]
  Activity: 100%

Source: ChEMBL document CHEMBL4330132, “5-Keto-3-cyano-2,4-diaminothiophenes as selective maternal embryonic leucine zipper kinase inhibitors” (Bioorg Med Chem Lett, 2019)
